Data as given in PMC12951562, “SH2scan: Mapping SH2 Domain-Ligand Binding Selectivity for Inhibitors and Degraders” (Journal of Medicinal Chemistry, 2026).
Read-outs that look alike come from different tables or passages of the source. Non-standard residues stand in square brackets, D forms with d. Residues, ends and D or L forms follow the SMILES beside them. *: point of attachment. pY = N[C@@H](Cc1ccc(OP(=O)(O)O)cc1)C(=O)O; Caffeoyl = O=C(/C=C/c1ccc(O)c(O)c1)*

How the values were obtained:
Experiment in all cases: biochemical
Format in all cases: binding
[1] = target: T1, VAV1 (Homo sapiens, UniProt P15498)
T1 construct: made in house; host or cells: HEK293 (transient transfection), unpurified extract
T1 sequence (P15498 1-845): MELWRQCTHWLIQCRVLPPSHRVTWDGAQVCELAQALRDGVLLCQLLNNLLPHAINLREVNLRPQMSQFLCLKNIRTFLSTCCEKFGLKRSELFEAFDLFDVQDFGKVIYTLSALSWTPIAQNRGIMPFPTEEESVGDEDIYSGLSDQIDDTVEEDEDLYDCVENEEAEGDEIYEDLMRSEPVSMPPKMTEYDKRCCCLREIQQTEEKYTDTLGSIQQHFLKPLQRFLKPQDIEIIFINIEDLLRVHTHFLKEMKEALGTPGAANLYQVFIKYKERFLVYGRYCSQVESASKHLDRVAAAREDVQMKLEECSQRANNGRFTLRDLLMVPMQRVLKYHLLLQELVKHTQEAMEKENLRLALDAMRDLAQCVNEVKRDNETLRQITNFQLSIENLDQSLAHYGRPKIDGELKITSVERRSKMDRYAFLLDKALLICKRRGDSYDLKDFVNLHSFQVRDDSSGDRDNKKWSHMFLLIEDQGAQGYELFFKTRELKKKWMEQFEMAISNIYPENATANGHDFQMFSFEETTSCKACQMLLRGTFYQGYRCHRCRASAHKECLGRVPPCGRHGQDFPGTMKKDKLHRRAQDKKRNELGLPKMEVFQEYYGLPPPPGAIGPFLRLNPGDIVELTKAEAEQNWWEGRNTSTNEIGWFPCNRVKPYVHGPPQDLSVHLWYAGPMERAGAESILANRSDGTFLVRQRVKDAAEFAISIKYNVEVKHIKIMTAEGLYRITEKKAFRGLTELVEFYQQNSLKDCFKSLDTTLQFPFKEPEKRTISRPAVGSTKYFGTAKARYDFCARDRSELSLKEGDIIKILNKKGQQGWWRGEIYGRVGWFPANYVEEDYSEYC

[2] = target: T2, NCK2 (Homo sapiens, UniProt O43639); conditions: for remaining activity at 10 µM: read-out: percent of DMSO vehicle control
T2 construct: the DNA-tagged SH2 domain concentrations used in this study were <0.1 nM; made in house; host or cells: HEK293 (transient transfection, unpurified extract)
T2 sequence (O43639 285-380 limits assumed): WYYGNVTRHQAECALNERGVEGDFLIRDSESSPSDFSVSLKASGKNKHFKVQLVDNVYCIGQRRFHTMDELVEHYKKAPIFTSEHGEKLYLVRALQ

[3] = target: T3, TEC (Homo sapiens, UniProt P42680)
T3 construct: made in house; host or cells: HEK293 (transient transfection), unpurified extract
T3 sequence (P42680 1-631): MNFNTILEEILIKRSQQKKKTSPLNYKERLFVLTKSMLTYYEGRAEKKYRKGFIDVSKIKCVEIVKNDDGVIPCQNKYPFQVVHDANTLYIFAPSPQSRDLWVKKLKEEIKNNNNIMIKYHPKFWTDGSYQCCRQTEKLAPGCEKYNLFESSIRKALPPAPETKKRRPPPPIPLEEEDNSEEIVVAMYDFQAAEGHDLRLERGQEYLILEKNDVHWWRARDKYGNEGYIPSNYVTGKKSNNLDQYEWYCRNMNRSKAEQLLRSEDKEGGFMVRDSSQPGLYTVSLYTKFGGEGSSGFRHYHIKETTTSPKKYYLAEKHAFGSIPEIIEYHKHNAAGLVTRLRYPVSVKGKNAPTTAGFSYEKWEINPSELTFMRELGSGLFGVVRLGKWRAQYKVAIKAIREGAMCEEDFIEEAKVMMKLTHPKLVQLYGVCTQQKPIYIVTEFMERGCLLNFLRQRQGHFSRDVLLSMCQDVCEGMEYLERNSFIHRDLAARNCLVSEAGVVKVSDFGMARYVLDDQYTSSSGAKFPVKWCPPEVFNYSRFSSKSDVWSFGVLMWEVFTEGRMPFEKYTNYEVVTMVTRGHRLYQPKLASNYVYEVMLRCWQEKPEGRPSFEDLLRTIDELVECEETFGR

[4] = target: T4, RASA1(SH2dom.C-term.) (Homo sapiens, UniProt P20936); conditions: for remaining activity at 10 µM: read-out: percent of DMSO vehicle control
T4 construct: SH2dom.C-term. denotes SH2 domain closest to C-terminus of protein; made in house; host or cells: HEK293 (transient transfection, unpurified extract)
T4 sequence (P20936 351-441 limits assumed): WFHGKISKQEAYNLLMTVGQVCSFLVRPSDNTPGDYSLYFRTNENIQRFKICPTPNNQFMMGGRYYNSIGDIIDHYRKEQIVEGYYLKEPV

[5] = target: T5, ABL2 (Homo sapiens, UniProt P42684)
T5 construct: the DNA-tagged SH2 domain concentrations used in this study were <0.1 nM; made in house; host or cells: HEK293 (transient transfection; unpurified extract)
T5 sequence (P42684 173-263 limits assumed): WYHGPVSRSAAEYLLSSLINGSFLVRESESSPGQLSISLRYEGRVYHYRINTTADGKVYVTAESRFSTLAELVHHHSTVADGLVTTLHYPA

[6] = target: T6, SHC4 (Homo sapiens, UniProt Q6S5L8); conditions: for remaining activity at 10 µM: read-out: percent of DMSO vehicle control
T6 construct: made in house; host or cells: HEK293 (transient transfection), unpurified extract
T6 sequence (Q6S5L8 1-630): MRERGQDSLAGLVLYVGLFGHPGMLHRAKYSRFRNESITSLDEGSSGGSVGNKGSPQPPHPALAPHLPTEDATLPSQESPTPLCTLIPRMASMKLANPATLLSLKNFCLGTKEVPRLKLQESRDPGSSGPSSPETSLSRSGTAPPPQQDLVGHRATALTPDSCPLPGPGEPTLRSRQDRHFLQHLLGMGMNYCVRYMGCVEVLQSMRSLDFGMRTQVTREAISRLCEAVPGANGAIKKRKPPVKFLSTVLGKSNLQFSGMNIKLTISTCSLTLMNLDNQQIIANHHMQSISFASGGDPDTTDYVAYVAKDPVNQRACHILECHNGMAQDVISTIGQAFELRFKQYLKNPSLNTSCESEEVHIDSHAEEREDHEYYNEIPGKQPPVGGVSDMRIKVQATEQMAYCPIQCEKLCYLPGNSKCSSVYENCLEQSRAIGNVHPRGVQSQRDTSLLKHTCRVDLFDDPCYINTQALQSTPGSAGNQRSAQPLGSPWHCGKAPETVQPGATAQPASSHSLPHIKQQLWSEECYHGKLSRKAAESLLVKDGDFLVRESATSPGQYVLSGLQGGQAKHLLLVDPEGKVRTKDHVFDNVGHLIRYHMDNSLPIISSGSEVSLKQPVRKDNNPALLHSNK

[7] = target: T7, HCK (Homo sapiens, UniProt P08631); conditions: for remaining activity at 10 µM: read-out: percent of DMSO vehicle control
T7 construct: the DNA-tagged SH2 domain concentrations used in this study were <0.1 nM; made in house; host or cells: HEK293 (transient transfection, unpurified extract)

[8] = target: T8, MATK (Homo sapiens, UniProt P42679)
T8 construct: the DNA-tagged SH2 domain concentrations used in this study were <0.1 nM; made in house; host or cells: HEK293 (transient transfection, unpurified extract)
T8 sequence (P42679 122-211 limits assumed): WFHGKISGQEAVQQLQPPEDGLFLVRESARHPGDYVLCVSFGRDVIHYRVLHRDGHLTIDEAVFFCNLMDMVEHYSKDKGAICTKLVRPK

[9] = read-out: percent of DMSO vehicle control
[10] = primary screen, 10 μM, read-out: percent of DMSO vehicle control

T7 sequence (P08631 144-241 limits assumed): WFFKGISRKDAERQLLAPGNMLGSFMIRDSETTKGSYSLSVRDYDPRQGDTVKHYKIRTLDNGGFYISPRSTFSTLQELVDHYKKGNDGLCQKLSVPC

Row | SMILES | Kd [1] [nM] | percent of DMSO vehicle control at 10 µM [1, 9] [%] | remaining activity at 10 µM [2] [%] | percent of DMSO vehicle control at 10 µM [3, 9] [%] | remaining activity at 10 µM [4] [%] | Kd [5] [nM] | percent of DMSO vehicle control at 10 µM [5, 9] [%] | remaining activity at 10 µM [6] [%] | remaining activity at 10 µM [7] [%] | percent of DMSO vehicle control at 10 µM [8, 9] [%] | further results
1 | CC[C@H](C)[C@H](NC(=O)[C@H](CCC(=O)O)NC(=O)[C@H](CCC(=O)O)NC(=O)[C@H](Cc1ccc(OP(=O)(O)O)cc1)NC(C)=O)C(=O)N[C@@H](CCC(=O)O)C(N)=O [Ac-pYEEIE-NH2] (Ac-[pY]EEIE-NH2) | – | – | – | – | – | – | – | – | – | – | percent of DMSO vehicle control ([1]; primary screen, 10 μM): 87.2±8.1%; percent of DMSO vehicle control ([2]; primary screen, 10 μM): 74.9%; percent of DMSO vehicle control ([3]; primary screen, 10 μM): 119.3%; percent of DMSO vehicle control ([4]; primary screen, 10 μM): 119.3%; percent of DMSO vehicle control ([5]; primary screen, 10 μM): 110.7%; percent of DMSO vehicle control ([6]; primary screen, 10 μM): 119.5%; percent of DMSO vehicle control ([7]; primary screen, 10 μM): 82.2%; percent of DMSO vehicle control ([8]; primary screen, 10 μM): 197.1%
2 | CC(=O)N[C@@H](Cc1ccc(CP(=O)(O)O)cc1)C(=O)NC1(C(=O)N[C@@H](CC(N)=O)C(=O)NCCCc2c(O)ccc3ccccc23)CCCCC1 [CGP78850] | 260 | 1.8 ± 0.4 | 111 ± 23.7 | 126.5 ± 0.2 | 131 ± 42.7 | 1100 ± 120 | 6.2 ± 0.1 | 108 ± 7.4 | 60 ± 12.1 | 153 ± 7.1 | –
3 | CC[C@H](C)[C@H](NC(=O)[C@H](CCC(=O)O)NC(=O)[C@H](CCC(=O)O)NC(=O)[C@H](Cc1ccc(OP(=O)(O)O)cc1)NC(=O)/C=C/c1ccc(O)c(O)c1)C(=O)N[C@@H](CCC(=O)O)C(=O)O [Caffeic acid-pYEEIE] (Caffeoyl-[pY]EEIE-OH) | 840 ± 530 | 1.6 ± 0.6 | 2.8 ± 3.1 | 0.1 | 78 ± 6.4 | 1400 ± 360 | 0.7 ± 0.4 | 0 | 0 | 83.8 ± 3.5 | Kd [2]: 210 ± 59 nM; Kd [3]: 39 ± 7.8 nM; Kd [6]: 39 ± 6.1 nM; Kd [7]: 6 ± 0.97 nM
4 | O=C(CCl)Nc1cccc(CNC(=O)[C@H](Cc2ccc(OP(=O)(O)O)cc2)NC(=O)Cc2ccc(F)cc2)c1 [MN551] | – | – | – | – | – | – | – | – | – | – | remaining activity at 10 µM [1, 10]: 109%; remaining activity at 10 µM ([2]; primary screen, 10 μM): 81.5 ± 3%; remaining activity at 10 µM [3, 10]: 120%; remaining activity at 10 µM ([4]; primary screen, 10 μM): 107%; remaining activity at 10 µM [5, 10]: 94.6 ± 1.6%; remaining activity at 10 µM ([6]; primary screen, 10 μM): 93 ± 4.4%; remaining activity at 10 µM ([7]; primary screen, 10 μM): 92.7%; remaining activity at 10 µM [8, 10]: 60.4 ± 2.8%
